Source: US20260226102A1, “PEPTIDES FOR INCRETIN SYNTHESIS” (priority 2022, published 2026)
Counter-ions that a name gives are not always drawn. Like-named read-outs stand apart in the source and are kept apart here. Square brackets hold non-standard residues; d marks the D form. Peptide text beside a SMILES is read from it. * marks the point of attachment. Boc = CC(C)(C)OC(=O)*; Aib = CC(C)(N)C(=O)O; OcHex = C1CCC(O*)CC1; OBn = c1ccc(CO*)cc1; OtBu = CC(C)(C)O*; tBu = CC(C)(C)*; OAll = C=CCO*

How the values were obtained:
[1] = Physical stability of crystalline solid form on isolation/drying (XRPD); type: physicochemical; conditions: for physical stability of the crystalline form: during isolation or upon air-drying/drying
[2] = Dynamic vapor sorption (DVS) analysis of hygroscopicity; type: physicochemical
Source text: Crystallization of Y-Aib-E-G helps to reject impurities from the crude material. […] Crystallization of the crude Y-Aib-E-G spiked with 1% dimer (impurity) yielded a crystalline Y-Aib-E-G with almost complete rejection of the dimer. Crystallization also improves physical properties, for example, the hygroscopicity.

[3] = standing 24 hours or more
Procedure: Peptide samples were screened for crystal stability in several organic solvents. […] The following organic solvents were used for the study: Acetone, ACN, MeOH, EtOH, IPA, BuOH, EtOAc, MTBE, THF, MEK, toluene, and water.
30 mg samples of each peptide tetramer were dispensed into sample vials using an automated dispenser (one vial of each peptide for testing with each solvent). […] Samples were then allowed to stand for 24 hours or more.

Structure (SMILES)	physical stability of the crystalline form after vacuum drying ([1]; vacuum drying at 32-33° C. for 1 day)	wt % gain in sorption from 0% to 95% RH [2] [wt %]	Crystal Formed ([3]; solvent ACN)	Crystal Formed ([3]; solvent Acetone)	Crystal Formed ([3]; solvent BuOH)	Crystal Formed ([3]; solvent EtOAc)	Crystal Formed ([3]; solvent EtOH)	Crystal Formed ([3]; solvent H2O)	Crystal Formed ([3]; solvent IPA)	Crystal Formed ([3]; solvent MEK)	Crystal Formed ([3]; solvent MTBE)	Crystal Formed ([3]; solvent MeOH)	Crystal Formed ([3]; solvent THF)	Crystal Formed ([3]; solvent toluene)	physical stability of the crystalline form [1]
CC(C)(C)OC[C@H](NC(=O)[C@H](COC(C)(C)C)NC(=O)[C@@H]1CCCN1C(=O)CN)C(=O)NCC(N)=O [G-P-S-S-G-NH2 Form B, Gly-Pro-Ser(tBu)-Ser(tBu)-Gly-NH2] (H-GPS(tBu)S(tBu)G-NH2)	remained as Form B	–	–	–	–	–	–	–	–	–	–	–	–	–	–
CC(C)(C)OC(=O)CC[C@H](NC(=O)C(C)(C)NC(=O)[C@H](Cc1ccc(OC(C)(C)C)cc1)NC(=O)OC(C)(C)C)C(=O)NCC(=O)O [Y-Aib-E-G Form B, Boc-l-Tyr (tBu)-Aib-Glu(OtBu)-Gly-OH] (Boc-Y(tBu)[Aib]E(OtBu)G-OH)	–	1.4	–	–	–	–	–	–	–	–	–	–	–	–	–
CC(C)(C)OC(=O)CC[C@H](NC(=O)C(C)(C)NC(=O)[C@H](Cc1ccc(OC(C)(C)C)cc1)NC(=O)OC(C)(C)C)C(=O)NCC(=O)O [amorphous Y-Aib-E-G, Boc-l-Tyr (tBu)-Aib-Glu(OtBu)-Gly-OH] (Boc-Y(tBu)[Aib]E(OtBu)G-OH)	–	4.1	–	–	–	–	–	–	–	–	–	–	–	–	–
CC(C)(C)OC(=O)N[C@@H](Cc1ccc(OC(C)(C)C)cc1)C(=O)NC(C)(C)C(=O)N[C@@H](CCC(=O)OCc1ccccc1)C(=O)NCC(=O)O [Boc—Y(tBu)-Aib-E(Bzl)-G-COOH, Boc-Y(tBu)-Aib-E(Bzl)-G-COOH] (Boc-Y(tBu)[Aib]E(OBn)G-OH)	–	–	Yes	Yes	No	Yes	No	No	No	Yes	Yes	No	Yes	Yes	–
CC(C)(C)OC(=O)NC(Cc1cn(-c2ccc([N+](=O)[O-])cc2[N+](=O)[O-])cn1)C(=O)NC(C)(C)C(=O)NC(CCC(=O)NC(c1ccccc1)(c1ccccc1)c1ccccc1)C(=O)NCC(=O)O (stereo not drawn) [H(DNP)-Aib-Q-G Form A, (Boc)-His(dnp)-Aib-Gln(trt)-Gly]	–	–	–	–	–	–	–	–	–	–	–	–	–	–	converts to H(DNP)-Aib-Q-G Form C easily
CC(C)(C)OC(=O)NC(Cc1ccc(OC(C)(C)C)cc1)C(=O)NC(C)(C)C(=O)NC(CCC(=O)OC1CCCCC1)C(=O)NCC(=O)O (stereo not drawn) [Boc—Y(tBu)-Aib-E(cHx)-G-COOH, Boc-Y(tBu)-Aib-E(cHx)-G-COOH] (Boc-Y(tBu)[Aib]E(OcHex)G-OH; configuration not given here)	–	–	No	No	No	No	No	No	No	No	No	No	No	No	–
C[C@H](N)C(=O)N1CCC[C@H]1C(=O)N1CCC[C@H]1C(=O)N1CCC[C@H]1C(=O)N[C@@H](COC(C)(C)C)C(N)=O [H-A-P-P-P-S-NH2 HCl Form A, H-Ala-Pro-Pro-Pro-Ser(tBu)-NH2] (H-APPPS(tBu)-NH2)	–	–	–	–	–	–	–	–	–	–	–	–	–	–	loses crystallinity upon isolation/drying
COC(=O)CCC(NC(=O)C(C)(C)NC(=O)C(Cc1ccc(OC(C)(C)C)cc1)NC(=O)OC(C)(C)C)C(=O)NCC(=O)O (stereo not drawn) [Boc—Y(tBu)-Aib-E(Me)-G-COOH, Boc-Y(tBu)-Aib-E(Me)-G-COOH] (Boc-Y(tBu)[Aib]E(OMe)G-OH; configuration not given here)	–	–	No	No	No	No	No	No	No	No	Yes	No	No	No	–
C=CCOC(=O)CCC(NC(=O)C(C)(C)NC(=O)C(Cc1ccc(OC(C)(C)C)cc1)NC(=O)OC(C)(C)C)C(=O)NCC(=O)O (stereo not drawn) [Boc—Y(tBu)-Aib-E(All)-G-COOH, Boc-Y(tBu)-Aib-E(All)-G-COOH] (Boc-Y(tBu)[Aib]E(OAll)G-OH; configuration not given here)	–	–	No	No	No	Yes	No	No	No	Yes	Yes	No	No	No	–
CC(C)(C)OC[C@H](NC(=O)[C@H](COC(C)(C)C)NC(=O)[C@@H]1CCCN1C(=O)CN)C(=O)NCC(N)=O [G-P-S-S-G-NH2 Form A, Gly-Pro-Ser(tBu)-Ser(tBu)-Gly-NH2] (H-GPS(tBu)S(tBu)G-NH2)	–	–	–	–	–	–	–	–	–	–	–	–	–	–	physically is not stable and converts to Form B easily
